“And” between values parts separate entries of the source, which are not always exact repeats. Identical values can stand only once.
Assays:
ADJ-PC6 Plasmacytoma = ADJ-PC6 Plasmacytoma implanted sc in BALB/c female mice; assay type: in vivo, mouse
Description: Likewise, Compound No. 1 from Table A was tested in an additional in vivo tumor model known as ADJ-PC6 Plasmacytoma. In this assay, tumor cells are carried by serial sc passage in BALB/c female mice and then collected aseptically on ca. day 21 and minced in Hank's balanced salt solution. The cells are then dispersed by homogenization in a loose-fitting teflon glass homogenizer, and cell concentration is adjusted to 4×10^6 viable ([…]) cells per ml by hemocytometer counts. A total of 0.5 ml (2×10^6 cells) is implanted sc on the right flank of BALB/c female mice in groups of 8. Treatment is given ip on Days 1-10, and tumors are measured in perpendicular diameters with a vernier caliper on Day 18. Tumor volume is calculated by multiplying length×width^2×0.5. Generally, ≥75% inhibition of tumor growth reflects significant antitumor effect.

B16 melanoma cells = test: B16 mouse melanoma cell clonogenic cytotoxicity assay in vitro, two hour exposure; assay type: cell-based; details: B16 cloning efficiency; 2 hour exposure; 10% fetal calf serum
Description: The B16 mouse melanoma cell assay measures the ability of a compound to inhibit the clonogenic capacity of cells in vitro following a two hour exposure to the compound.
B16 melanoma (highly metastatic subline, F10) are used and maintained as monolayer cultures in Minimal Essential Media (Grand Island Biological Co., Grand Island, N.Y.) supplemented with 10% calf serum, 1% antibiotics in a 5% CO2 humidified incubator at 37° C. Asynchronous populations of cells are harvested and replated to 5000 cells/plate in sterile 60 mm×15 mm petri plates. Plates are incubated overnight to allow attachment of the cells to the plate. Cells are treated with the compound to be evaluated under sterile conditions, allowed to react for 2 hours followed by aspiration of medium. Plates are washed one time with 5 ml of phosphate buffered saline (PBS), followed by the addition of 5 ml of fresh media. […] Viability is measured by the ability of a cell to form a colony of greater than 50 cells. […] Plates are dried and counted with a Biotran III Automatic Count Totalized (New Brunswick Scientific Co., Edison, N.J.). Mean and standard deviation of triplicate samples are determined for each drug concentration. The data are analyzed by plotting the log of the survival fraction (number of colonies in drug treated plates/number of colonies in controls) versus the drug concentration. […]

[1] = test system: HT-29 human colon carcinoma cells; test: HT-29 human colon carcinoma cell kill in vitro, 2 hour exposure; assay type: cell-based; details: +FCS
Description: Additionally, in another in vitro assay, Compound No. 1 effectively killed HT-29 human colon carcinoma cells, with an IC50 (+FCS) of 5 μM following a 2 hour exposure.

[2] = test system: mammary adenocarcinoma 16/c; test: mammary adenocarcinoma 16/c implanted sc in C3H mice; assay type: in vivo, mouse; details: ip, q4D × 5
Description: Compound No. 1 from Table A was also tested in a further in vivo tumor model, mammary adenocarcinoma 16/c, a tumor model sensitive to DNA binders and alkylating agents. In this experiment, the tumor was implanted sc in C3H mice, and the drug was administered ip or iv on an intermittant treatment schedule, i.e., once on days 1, 5, 9, 13 and 17. Tumors were measured 3 weeks after implantation, and activity was assessed by degree of tumor growth inhibition.

B16 melanoma = test: in vivo ip B16 melanoma in mice; parameters: species or system mouse
Description: In this system, groups of eight B6D2F1 mice are inoculated ip with 0.5 ml of a 10% (w:v) brei of B16 melanoma prepared from pooled sc tumors excised at 14-21 days from […] donor mice. Daily treatment is begun 24 hours after tumor implantation and is continued daily for ten (10) days. The route of drug administration is ip. The mice are monitored daily for survival for sixty (60) days. Antitumor activity is assessed by prolongation of median survival time. An ILS of ≥25% indicates activity in this tumor model.
Similarly, in another additional in vivo tumor model, namely B16 melanoma in mice, Compound No. 1 from Table A, administered ip in a dosage schedule of 8, 4, 2, 1 and 0.5 mg/kg produced an average increase in lifespan (ILS) of 32% at a maximally tolerated dose (MTD) of 3.4 μM/kg.

[3] = test system: P388 lymphocytic leukemia; test: in vivo ip P388 leukemia mouse model; details: for ILS relative to cisplatin / activity in the P388 leukemia assay: ip P388, in words; for ILS (Max), maximum increase in lifespan: mice bearing ip P388 leukemia, ip days 1-5, slash-separated figures are separate experiments
From the text: P388 lymphocytic leukemia is currently the most widely used animal tumor model for screening for antitumor agents and for detailed evaluation of active compounds. This tumor system is widely accepted as an antitumor agent screening tool because it is sensitive to virtually all of the clinically active antineoplastic agents; quantitative and reproducible; amenable for large-scale screening; and predictive for activity in other animal tumor models.
10^6 P388 leukemia cells are inoculated ip in B6D2F1 mice. Twenty-four hours later, if the tumor inoculum proves to be free of bacterial contamination (as determined by 24 hours incubation in thioglycollate broth), animals are randomized into groups of 6 and housed in shoebox cages. […] An equal volume of saline is added; if the drug comes out of solution an equal volume of polyethoxylated castor oil is added and then saline qs to a concentration such that the desired dose is delivered in 0.5 ml. The final concentration of DMA, ethanol and polyethoxylated castor oil is 10 percent. Dilutions for lower doses are made with saline so there is a decreasing proportion of organic solvents in the vehicle with decreasing dosage. These vehicles provide soluble formulations (or suspensions). Formulations are prepared immediately prior to injection. The compound is administered ip on Days 1 through 5 (i.e. treatment is initiated 24 hrs after tumor inoculation). Each experiment includes three groups of 6 animals as untreated controls and animals treated with a positive control, cisplatin, at two dose levels. Animals are weighed as a group on Days 1, 5 and 9 and average weight change (Δwt.) is used as a reflection of toxicity. Each experiment also includes an inoculum titration--groups of 8 mice inoculated ip with 10^5 to 10° P388 leukemia cells. The titration is used to calculate cell kill achieved by treatment with drugs. Animals are monitored daily for mortality and experiments are terminated after 45 days. The endpoint is median survival time (MST) and increase in lifespan (ILS) which is the percentage of increase in MST relative to untreated controls. Untreated controls inoculated ip with 10^6 P388 leukemia cells generally survive for a median of 10 or 11 days. A drug is considered active if it produces ≥25 percent ILS.

[4] = test system: M5076 reticulum cell sarcoma; test: ip implanted M5076 reticulum cell sarcoma in mice; assay type: in vivo, mouse; details: mice bearing ip M5076; ip qD × 10; slash-separated figures are separate experiments
Description: Another chemosensitive tumor model is intraperitoneally (ip) implanted M5076 reticulum cell sarcoma in mice. In this system B6D2F female mice are inoculated with 0.5 ml of a 10 percent (w:v) brei of M5076 prepared from pooled subcutaneous (sc) tumors excised at about 21 days from C57B1/6 donors. Drugs are administered ip. Daily treatement is begun 24 hours after implantation and is continued for ten days. The treatment regimen for M5076 is more prolonged than for P388 because of the slower growth rate and longer control survival time of the M5076 tumor. The antitumor activity of Compounds No. 1 and No. 2 of Table A in the M5076 reticulum cell sarcoma tumor model is set forth in Table 2.

[5] = Dumas et al., JP 58,192,893; cited from earlier work
[6] = test system: mammary adenocarcinoma 16/c; details: general statement on the positive control; cited from earlier work
P388 leukemia = details: cited from earlier work
[7] = Struck et al. 1966; cited from earlier work

OCC1OC([S][Au])C(O)C(O)C1O.OCC1OC([S][Au])C(O)C(O)C1O.c1ccc(P(CCP(c2ccccc2)c2ccccc2)c2ccccc2)cc1 [Compound No. 1]
% Inhibition of tumor growth (Day 18) (ADJ-PC6 Plasmacytoma; 3 mg/kg/day × 10, ip): 50%
MTV, mean tumor volume on Day 18 (ADJ-PC6 Plasmacytoma; 3 mg/kg/day × 10, ip): 295 ± 163 mm^3
N.P., proportion of mice without palpable tumor on Day 18 (ADJ-PC6 Plasmacytoma; 3 mg/kg/day × 10, ip): 0/8
% Inhibition of tumor growth (Day 18) (ADJ-PC6 Plasmacytoma; 6 mg/kg/day × 10, ip): 98%
MTV, mean tumor volume on Day 18 (ADJ-PC6 Plasmacytoma; 6 mg/kg/day × 10, ip): 11 ± 28 mm^3
N.P., proportion of mice without palpable tumor on Day 18 (ADJ-PC6 Plasmacytoma; 6 mg/kg/day × 10, ip): 6/7
inhibition of ADJPC6 Plasmacytoma (ADJ-PC6 Plasmacytoma; another experiment, same dose (6 mg/kg/day × 10, ip) and schedule): 23%
IC50 (B16 melanoma cells): 1 ± 0.2 µM
IC50 [1]: 5 µM
Inhibition ([2]; Experiment 1, 12 mg/kg): 96%
Mean Tumor Volume on Day 21 ([2]; Experiment 1, 12 mg/kg): 42 ± 60 mm^3
N.P., proportion of mice without palpable tumors on Day 21 ([2]; Experiment 1, 12 mg/kg): 3/5
average increase in lifespan (ILS) (B16 melanoma; B16 melanoma in mice, ip 8, 4, 2, 1 and 0.5 mg/kg, at MTD of 3.4 μM/kg): 32%
ILS, maximum increase in lifespan (B16 melanoma; mice bearing ip B16 melanoma, ip qD × 10, slash-separated figures are separate experiments): 37% and 26%
ILS relative to cisplatin [3]: comparable to the clinically useful antitumor agent cisplatin
activity in the P388 leukemia assay [3]: particularly good activity
ILS (Max), maximum increase in lifespan [3]: 86 ± 8%
ILS (MAX), maximum increase in lifespan [4]: 45% and 65%

μ-[1,3-Bis(diphenylphosphino)propane]bis[1-thio-β-D-glucopyranosato-S)gold(I)] [compound 6]
ILS (Max), maximum increase in lifespan [3]: 28% and 56% and 41%
ILS (MAX), maximum increase in lifespan [4]: 35%

CC[PH](CC)(CC)[Au][Se]C1OC(COC(C)=O)C(OC(C)=O)C(OC(C)=O)C1OC(C)=O (centres unmarked) [selenium analog of auranofin]
antiarthritic utility [5]: antiarthritic agents

μ-[1,2-Bis(diphenylphosphino)ethane]bis[1,thio-α-D-mannopyranosato-S)gold(I)] [compound 5]
ILS (Max), maximum increase in lifespan [3]: 90% and 74%

μ-1,2-Bis(Diphenylphosphino)Ethane]Bis[(1-Thio-β-D-Galactopyranosato-S)Gold(I)] [compound 4]
ILS (Max), maximum increase in lifespan [3]: 85% and 100% and 147%
ILS (MAX), maximum increase in lifespan [4]: 37%

μ-[1,2-Bis(diphenylphosphino)ethane]bis[2,3,4,6-tetra-O-acetyl-1-thio-β-D-glucopyranosato-S)gold(I)] [compound 2]
ILS relative to cisplatin [3]: comparable to the clinically useful antitumor agent cisplatin
activity in the P388 leukemia assay [3]: particularly good activity
ILS (Max), maximum increase in lifespan [3]: 95%
ILS (MAX), maximum increase in lifespan [4]: 67%

N.N.[Cl][Pt][Cl] [Cisplatin, cisplatin]
inhibition of the growth of mammary adenocarcinoma 16/c [6]: complete inhibition
tumor growth inhibition (ADJ-PC6 Plasmacytoma; positive control, in words): complete tumor growth inhibition
Inhibition ([2]; Experiment 1, 6 mg/kg): 97%
Mean Tumor Volume on Day 21 ([2]; Experiment 1, 6 mg/kg): 30 ± 64 mm^3
N.P., proportion of mice without palpable tumors on Day 21 ([2]; Experiment 1, 6 mg/kg): 6/8
Inhibition ([2]; Experiment 2, 6 mg/kg): 100% and 98%
N.P., proportion of mice without palpable tumors on Day 21 ([2]; Experiment 2, 6 mg/kg): 8/8 and 7/8
Inhibition ([2]; Experiment 2, 8 mg/kg): 36%
Mean Tumor Volume on Day 21 ([2]; Experiment 2, 8 mg/kg): 711 ± 268 mm^3
N.P., proportion of mice without palpable tumors on Day 21 ([2]; Experiment 2, 8 mg/kg): 0/7

CC(=O)OC[C@H]1O[C@@H]([S-])[C@H](OC(C)=O)[C@@H](OC(C)=O)[C@@H]1OC(C)=O.CCP(CC)CC.[Au+] [auranofin]
activity in an intraperitoneal P388 leukemia tumor model (P388 leukemia; Mirabelli et al. 1984): respectable activity
antitumor effects in animals bearing P388 leukemia (P388 leukemia; Simon et al. 1981, Mirabelli et al. 1985): significant antitumor effects

μ-[1,2-Bis(diphenylphosphino)ethane]-bis[1-seleno-β-D-glucopyranosato-se)gold(I)] [compound 7]
ILS (Max), maximum increase in lifespan [3]: 36% and 27%
ILS (MAX), maximum increase in lifespan [4]: 46%

μ-8 1,2-Bis(Diphenylphosphino)Ethane]Bis[(2,3,4,6-Tetra-O-Acetyl-1-Thio-α-D-Mannopyranosato-S)Gold(I)] [compound 3]
ILS relative to cisplatin [3]: comparable to the clinically useful antitumor agent cisplatin
activity in the P388 leukemia assay [3]: particularly good activity
ILS (Max), maximum increase in lifespan [3]: 30% and 25%

c1ccc(P(CCP(c2ccccc2)c2ccccc2)c2ccccc2)cc1 [ethylenebis(diphenylphosphine)]
cytotoxic activity [7]: cytotoxic activity

μ-[1,2-Bis(Diphenylphosphino)Ethane]-bis [compound 8, μ-[1,2-Bis(Diphenylphosphino)Ethane]-bis [1-Thio-D-Ribofuranosato-S)Gold(I)]]
ILS (Max), maximum increase in lifespan [3]: 50% and 56%

Source: US4645756A, “[α,ω-bis(diphenylphosphino)hydrocarbon]bis[(thiosugar)gold] and bis[(selenosugar)gold] derivatives, pharmaceutical compositions and method of use” (priority 1985, dated 1987)
